Like-named read-outs stand apart in the source and are kept apart here. Blank lines part the entries; values can stand above or below the molecule they belong to.
Experiments:
[1] = type: in vivo, human; conditions: for PCI-45227 mean AUClast / PCI-45227 mean Cmax / PCI-45227 tmax, median (range): fasted; for concentration at 2 h: rifampin plasma concentration, Study 2, day 11, 2 h after drug intake, rifampin 600 mg q.d.
[2] = not given; remark: listed apart in the source
[3] = standard breakfast with GFJ; ref de Vries et al. [2015]; cited from earlier work
[4] = test system: Bruton’s tyrosine kinase (BTK); conditions: reversible binding; ref Parmar et al. [2014]; cited from earlier work
[5] = Study 1, ibrutinib 120 mg alone, fasted
[6] = Study 1, ibrutinib 40 mg + ketoconazole 400 mg, fasted
[7] = Study 1, ibrutinib + ketoconazole vs ibrutinib alone
[8] = Study 2, ibrutinib 560 mg + rifampin 600 mg
[9] = Study 2, ibrutinib 560 mg alone

mean DN_AUClast of ibrutinib (Study 1, ibrutinib 120 mg alone, day 1, fasted): 71.4 ng·h/mL
mean DN_Cmax of ibrutinib (Study 1, ibrutinib 120 mg alone, day 1, fasted, healthy men): 11.8 ng/mL
AUClast geometric mean [5]: 61 ng·h/mL
AUC (human, in vivo, 120 mg): 56 ng·h/mL
AUC(0-inf) (human, in vivo, 120 mg): 71 ng·h/mL
AUC(0-inf) ([1]; human, plasma, oral, 560 mg): 300 ng·h/mL
AUCs of ibrutinib following i.v. administration with and without GFJ ([2]; Study 3, nonfasted, i.v. dose of 100 μg 13C6 PCI-32765): the same
AUC ([2]; human, in vivo, 560 mg): 529 ng·h/mL
AUC(0-inf) ([2]; human, in vivo, 560 mg): 643 ng·h/mL
SMILES: C=CC(=O)N1CCC[C@@H](n2nc(-c3ccc(Oc4ccccc4)cc3)c3c(N)ncnc32)C1 [Ibrutinib, reference compound]
absolute oral bioavailability (F) [3]: 15.9%

PCI-45227 t1/2, mean (SD) [6]: 18.00 h
PCI-45227 tmax, median (range) [6]: 4.00 h
PCI-45227 DN_AUClast [5]: 304 ng·h/mL
PCI-45227 DN_Cmax [5]: 29.1 ng/mL
PCI-45227 t1/2, mean (SD) [5]: 11.41 h
PCI-45227 tmax, median (range) [5]: 2.00 h
mean metabolite to parent ratio for Cmax (Study 1, ibrutinib + ketoconazole): 0.05
decrease of PCI-45227 DN_AUClast with ketoconazole [7]: 1.2 times lower
decrease of PCI-45227 DN_Cmax with ketoconazole [7]: 2.6 times lower
mean metabolite to parent ratio for Cmax (Study 1, ibrutinib alone): 2.64
PCI-45227 mean AUClast [1, 8]: 374 ng·h/mL
PCI-45227 mean Cmax [1, 8]: 49.9 ng/mL
PCI-45227 tmax, median (range) [1, 8]: 3.00 h
PCI-45227 mean AUClast [1, 9]: 946 ng·h/mL
PCI-45227 mean Cmax [1, 9]: 70.0 ng/mL
PCI-45227 tmax, median (range) [1, 9]: 2.02 h
metabolite to parent ratio for Cmax ([1]; Study 2, ibrutinib + rifampin): 20.80
metabolite to parent ratio for Cmax ([1]; Study 2, ibrutinib alone): 2.09
effect of GFJ on tmax of PCI-45227 ([2]; Study 3): no effect
dose-normalized PCI-45227 concentrations and AUCs with or without GFJ ([2]; Study 3, oral ibrutinib): comparable
Cmax metabolite-to-parent ratio ([2]; Study 3, with GFJ): 0.32
Cmax metabolite-to-parent ratio ([2]; Study 3, without GFJ): 1.03
SMILES: Nc1ncnc2c1c(-c1ccc(Oc3ccccc3)cc1)nn2[C@@H]1CCCN(C(=O)C(O)CO)C1 (stereo partly drawn) [PCI-45227]
inhibitory activity toward BTK relative to ibrutinib [4]: approximately 15 times lower

ketoconazole plasma concentration, two participants with very low concentrations (Study 1, day 7, individual values): 231 ng/mL
SMILES: CC(=O)N1CCN(c2ccc(OCC3COC(Cn4ccnc4)(c4ccc(Cl)cc4Cl)O3)cc2)CC1 (stereo not drawn) [ketoconazole, reference compound]

concentration at 2 h ([1]; human, plasma, oral, mean ± SD): 9250 ± 4960 ng/mL
concentration at 2 h ([1]; human, plasma, oral, range): 289 to 18400 ng/mL
SMILES: CO[C@H]1/C=C/O[C@@]2(C)Oc3c(C)c(O)c4c(O)c(c(/C=N/N5CCN(C)CC5)c(O)c4c3C2=O)NC(=O)/C(C)=C\C=C\[C@H](C)[C@H](O)[C@@H](C)[C@@H](O)[C@@H](C)[C@H](OC(C)=O)[C@@H]1C [rifampin, reference compound]

From article PMC4492731 (Pharmacology Research & Perspectives, 2015)
